Data on 17 compounds can be found in patent publication US8063221B2, “Aminoquinolones as GSK-3 inhibitors” (Kyorin Pharmaceutical Co., Ltd., priority 2006, dated 2011).

pIC50: −log10 of the molar value. Values after ≈ are worked out from the molar mass of the structure shown. Bounds are passed on as bounds.

T1 sequence (P49841 whole entry): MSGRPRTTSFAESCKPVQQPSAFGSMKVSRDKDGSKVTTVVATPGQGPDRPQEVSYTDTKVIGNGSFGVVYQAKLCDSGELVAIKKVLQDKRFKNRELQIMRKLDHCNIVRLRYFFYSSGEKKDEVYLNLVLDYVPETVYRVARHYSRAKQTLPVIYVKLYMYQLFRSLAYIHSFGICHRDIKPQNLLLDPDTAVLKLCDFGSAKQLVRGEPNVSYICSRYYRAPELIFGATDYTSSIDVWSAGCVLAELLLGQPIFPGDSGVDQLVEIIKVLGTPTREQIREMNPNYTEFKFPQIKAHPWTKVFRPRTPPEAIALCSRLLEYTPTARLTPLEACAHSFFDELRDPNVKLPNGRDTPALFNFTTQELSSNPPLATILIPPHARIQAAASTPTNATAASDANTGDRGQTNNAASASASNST

One experiment relates to E. coli, ATCC8739. Kind of experiment: Antibacterial activity (MIC), E. coli. It is filed as cell-based. The note with it: Escherichia coli, ATCC8739, Table 2; E. coli ATCC8739; read-out: Antimicrobial MIC [μM] E. Coli. The essentials:
(§1)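 MIC, the lowest compound concentration inhibiting bacterial growth in culture medium, determined by dilution method per CLSI M7-A4 guidance; reported in μM.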
The term MIC denotes the least concentration at which growth counts as inhibited. `NC1=C2C(=O)C(C(=O)O)=CN3CCCCOC(C(NCCNc4ccccn4)=C1F)C23` (stereo not drawn) [Example 140]: the minimal inhibitory concentration (MIC) is greater than 50 µM.
Regarding `CC(C)C[C@H]1COc2c(NCCCn3cnc4ccccc43)c(F)c(N)c3c(=O)c(C(=O)O)cn1c23` [compound 48], the MIC was 10 to 50 µM (≈ 4.94 to 24.7 µg/mL).
In the case of `C[C@@H]1COc2c(NCCNc3ccccn3)c(F)c(N)c3c(=O)c(C(=O)O)cn1c23` [compound 30], the MIC is greater than 50 µM.
In the case of `COc1c(NCCNc2ccc(C(=O)O)cn2)c(F)c(N)c2c(=O)ccn(C3CC3)c12` [Example 137], the MIC was greater than 50 µM.
In the case of `C[C@H]1COc2c(NCCCn3ccnc3)c(F)c(N)c3c(=O)c(C(=O)O)cn1c23` [compound 20], the MIC fell in the range of 10 to 50 µM (≈ 4.01 to 20.1 µg/mL).
`CC1(C)Cn2cc(C(=O)O)c(=O)c3c(N)c(F)c(NCCCn4cnc5ccccc54)c(c32)O1` [compound 56]: the MIC fell in the range of 10 to 50 µM (≈ 4.65 to 23.3 µg/mL).
With `CC(C)[C@@H]1COc2c(NCCNc3ccccn3)c(F)c(N)c3c(=O)c(C(=O)O)cn1c23` [compound 62], the MIC was 0.5 to 10 µM (≈ 0.221 to 4.41 µg/mL).
As to `Nc1c(F)c(NCCNc2ccccn2)c(F)c2c1c(=O)cc(C(=O)O)n2C1CC1` [Example 136], the minimum inhibitory concentration (MIC) is greater than 50 µM.
On to `C[C@@H]1COc2c(NCCCn3cnc4ccccc43)c(F)c(N)c3c(=O)c(C(=O)O)cn1c23` [compound 32], for which the MIC was 10 to 50 µM (≈ 4.51 to 22.6 µg/mL).
Still for that read-out and setting: in the case of `Cc1c(C(=O)O)c(=O)c2c(N)c(F)c(NCCNc3ccccn3)c(OC(C)C)c2n1C1CC1` [Example 127] it was 10 to 50 µM (≈ 4.7 to 23.5 µg/mL).
Take `COc1c(NCCNc2ccccn2)c(F)c(N)c2c(=O)c(C#N)cn(C3CC3)c12` [Example 142]: the MIC is greater than 50 µM.

Still in this experiment, the particulars now being: Escherichia coli, ATCC8739, read-out: Antibacterial MIC (μM) E.Coli.
As to `CC(C)OCCCNc1c(F)c(N)c2c(=O)c(C(=O)O)cn(C3CCCC3)c2c1F` [compound 55], the minimal inhibitory concentration (MIC) lay in the range of 10 to 50 µM (≈ 4.23 to 21.2 µg/mL).
Regarding `Nc1c(F)c(NCCCn2ccnc2)c(F)c2c1c(=O)c(C(=O)O)cn2CCCn1ccnc1` [compound 61], the minimal inhibitory concentration (MIC) is greater than 50 µM.
`COc1c(NCCc2cccnc2)c(F)c(N)c2c(=O)c(C(=O)O)cn(C3CC3)c12` [compound 85]: the minimal inhibitory concentration (MIC) lay within 0.5 to 10 µM (≈ 0.206 to 4.12 µg/mL).
Regarding `Nc1c(F)c(NCCc2ccc(F)cc2)c(F)c2c1c(=O)ccn2C1CC1` [compound 10], the minimum inhibitory concentration (MIC) fell in the range of 10 to 50 µM (≈ 3.73 to 18.7 µg/mL).
For `Nc1c(F)c(NCCNc2ccccn2)c(F)c2c1c(=O)c(C(=O)O)cn2CCc1ccccc1` [compound 49], the minimum inhibitory concentration (MIC) was 10 to 50 µM (≈ 4.79 to 24 µg/mL).

Staying with this experiment, now noted: Escherichia coli, ATCC8739, read-out: Antimicrobial MIC [μM] E. Coli.
Consider `CC1(C)COc2c(NCCCn3ccnc3)c(F)c(N)c3c(=O)ccn1c23` [compound 79], for which the MIC is greater than 50 µM.

The next experiment relates to S. aureus Smith. In words: Antibacterial activity (MIC), S. aureus. It counts as cell-based. The note with it: Staphylococcus aureus, Table 2; S. aureus Smith; read-out: Antimicrobial MIC [μM] S. aureus. An outline of the steps:
as §1
In the case of `NC1=C2C(=O)C(C(=O)O)=CN3CCCCOC(C(NCCNc4ccccn4)=C1F)C23` (stereo not drawn) [Example 140], the minimal inhibitory concentration (MIC) is greater than 50 µM.
For `CC(C)C[C@H]1COc2c(NCCCn3cnc4ccccc43)c(F)c(N)c3c(=O)c(C(=O)O)cn1c23` [compound 48], the MIC was 10 to 50 µM (≈ 4.94 to 24.7 µg/mL).
As to `C[C@@H]1COc2c(NCCNc3ccccn3)c(F)c(N)c3c(=O)c(C(=O)O)cn1c23` [compound 30], the MIC was greater than 50 µM.
On to `COc1c(NCCNc2ccc(C(=O)O)cn2)c(F)c(N)c2c(=O)ccn(C3CC3)c12` [Example 137], for which the minimum inhibitory concentration (MIC) was greater than 50 µM.
On to `C[C@H]1COc2c(NCCCn3ccnc3)c(F)c(N)c3c(=O)c(C(=O)O)cn1c23` [compound 20], for which the MIC was in the range of 0.5 to 10 µM (≈ 0.201 to 4.01 µg/mL).
For the compound `CC1(C)Cn2cc(C(=O)O)c(=O)c3c(N)c(F)c(NCCCn4cnc5ccccc54)c(c32)O1` [compound 56], the minimal inhibitory concentration (MIC) was in the range of 10 to 50 µM (≈ 4.65 to 23.3 µg/mL).
Still for that read-out and setting: as for `CC(C)[C@@H]1COc2c(NCCNc3ccccn3)c(F)c(N)c3c(=O)c(C(=O)O)cn1c23` [compound 62], the figure is 0.5 to 10 µM (≈ 0.221 to 4.41 µg/mL); as for `Nc1c(F)c(NCCNc2ccccn2)c(F)c2c1c(=O)cc(C(=O)O)n2C1CC1` [Example 136], greater than 50 µM; as for `C[C@@H]1COc2c(NCCCn3cnc4ccccc43)c(F)c(N)c3c(=O)c(C(=O)O)cn1c23` [compound 32], 10 to 50 µM (≈ 4.51 to 22.6 µg/mL).
As to `Cc1c(C(=O)O)c(=O)c2c(N)c(F)c(NCCNc3ccccn3)c(OC(C)C)c2n1C1CC1` [Example 127], the MIC lay within 0.5 to 10 µM (≈ 0.235 to 4.7 µg/mL).
For `COc1c(NCCNc2ccccn2)c(F)c(N)c2c(=O)c(C#N)cn(C3CC3)c12` [Example 142], the minimum inhibitory concentration (MIC) is greater than 50 µM.

The experiment is the same for the next values; noted with them: Staphylococcus aureus, read-out: Antibacterial MIC (μM) S. aureus Smith.
On to `CC(C)OCCCNc1c(F)c(N)c2c(=O)c(C(=O)O)cn(C3CCCC3)c2c1F` [compound 55], for which the minimal inhibitory concentration (MIC) lay within 10 to 50 µM (≈ 4.23 to 21.2 µg/mL).
Consider `Nc1c(F)c(NCCCn2ccnc2)c(F)c2c1c(=O)c(C(=O)O)cn2CCCn1ccnc1` [compound 61], for which the MIC is greater than 50 µM.
`COc1c(NCCc2cccnc2)c(F)c(N)c2c(=O)c(C(=O)O)cn(C3CC3)c12` [compound 85]: the minimum inhibitory concentration (MIC) was less than 0.5 µM.
With `Nc1c(F)c(NCCc2ccc(F)cc2)c(F)c2c1c(=O)ccn2C1CC1` [compound 10], the MIC fell in the range of 10 to 50 µM (≈ 3.73 to 18.7 µg/mL).
On to `Nc1c(F)c(NCCNc2ccccn2)c(F)c2c1c(=O)c(C(=O)O)cn2CCc1ccccc1` [compound 49], for which the minimum inhibitory concentration (MIC) lay within 10 to 50 µM (≈ 4.79 to 24 µg/mL).

Still in this experiment, the particulars now being: Staphylococcus aureus, read-out: Antimicrobial MIC [μM] S. aureus.
Regarding `CC1(C)COc2c(NCCCn3ccnc3)c(F)c(N)c3c(=O)ccn1c23` [compound 79], the MIC was greater than 50 µM.

Another experiment addresses T1, recombinant full-length human GSK3β (Homo sapiens, UniProt P49841).
T1 construct: recombinant full-length human GSK3β (Upstate); purchased Upstate
In words: Luciferase-coupled cell-free GSK3β kinase assay. It is filed as biochemical. The note with it: Table 1. The essentials:
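GSK3β, 10-25 ng, was incubated with compound for 1 h at 30° C in MOPS pH 7.0 buffer containing 62.5 μM phospho-glycogen synthase peptide-2 and 5 μM ATP. Remaining ATP was read by KinaseGlo luminescence, and IC50 was fitted from % inhibition relative to maximal inhibition.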
What is called pIC50 is the IC50 on a negative log10 scale, so that one unit is a factor of ten. For `CC(C)OCCCNc1c(F)c(N)c2c(=O)c(C(=O)O)cn(C3CCCC3)c2c1F` [compound 55], the negative logarithm of the IC50 (pIC50) is greater than 7.00.
Regarding `Nc1c(F)c(NCCCn2ccnc2)c(F)c2c1c(=O)c(C(=O)O)cn2CCCn1ccnc1` [compound 61], the pIC50 was 6.30 to 7.00.
The same measure, in the same setting: in the case of `COc1c(NCCc2cccnc2)c(F)c(N)c2c(=O)c(C(=O)O)cn(C3CC3)c12` [compound 85] it was less than 6.00.
The same measure, in the same setting: as for `Nc1c(F)c(NCCc2ccc(F)cc2)c(F)c2c1c(=O)ccn2C1CC1` [compound 10], the figure is 6.00 to 6.30; as for `Nc1c(F)c(NCCNc2ccccn2)c(F)c2c1c(=O)c(C(=O)O)cn2CCc1ccccc1` [compound 49], 6.30 to 7.00.

The experiment is the same for the next values; noted with them: Table 2.
In the case of `CC1(C)COc2c(NCCCn3ccnc3)c(F)c(N)c3c(=O)ccn1c23` [compound 79], the negative-log IC50 (pIC50) is greater than 7.00.
For `NC1=C2C(=O)C(C(=O)O)=CN3CCCCOC(C(NCCNc4ccccn4)=C1F)C23` (stereo not drawn) [Example 140], the pIC50 was 6.00 to 6.30.
For the compound `CC(C)C[C@H]1COc2c(NCCCn3cnc4ccccc43)c(F)c(N)c3c(=O)c(C(=O)O)cn1c23` [compound 48], the negative-log IC50 (pIC50) is greater than 7.00.
Turning to `C[C@@H]1COc2c(NCCNc3ccccn3)c(F)c(N)c3c(=O)c(C(=O)O)cn1c23` [compound 30], the pIC50 was 6.00 to 6.30.
Consider `COc1c(NCCNc2ccc(C(=O)O)cn2)c(F)c(N)c2c(=O)ccn(C3CC3)c12` [Example 137], for which the pIC50 was greater than 7.00.
With `C[C@H]1COc2c(NCCCn3ccnc3)c(F)c(N)c3c(=O)c(C(=O)O)cn1c23` [compound 20], the negative-log IC50 (pIC50) is 6.30 to 7.00.
`CC1(C)Cn2cc(C(=O)O)c(=O)c3c(N)c(F)c(NCCCn4cnc5ccccc54)c(c32)O1` [compound 56]: the pIC50 was 6.30 to 7.00.
In the case of `CC(C)[C@@H]1COc2c(NCCNc3ccccn3)c(F)c(N)c3c(=O)c(C(=O)O)cn1c23` [compound 62], the pIC50 was greater than 7.00.
Consider `Nc1c(F)c(NCCNc2ccccn2)c(F)c2c1c(=O)cc(C(=O)O)n2C1CC1` [Example 136], for which the pIC50 is less than 6.00.
On the same count and under the same terms, as for `C[C@@H]1COc2c(NCCCn3cnc4ccccc43)c(F)c(N)c3c(=O)c(C(=O)O)cn1c23` [compound 32], the figure is 6.30 to 7.00.
With `Cc1c(C(=O)O)c(=O)c2c(N)c(F)c(NCCNc3ccccn3)c(OC(C)C)c2n1C1CC1` [Example 127], the negative logarithm of the IC50 (pIC50) is 6.30 to 7.00.
On the same count and under the same terms, as for `COc1c(NCCNc2ccccn2)c(F)c(N)c2c(=O)c(C#N)cn(C3CC3)c12` [Example 142], the figure is greater than 7.00.
